What is called Ki is the equilibrium dissociation constant of an inhibitor or competing ligand from its target.

Each structure is given as a SMILES string.

This note sets out measurements from US7772263B2, “Compounds for the treatment of inflammatory disorders” (Schering Corporation, priority 2006, dated 2010).

One assay deals with T1, purified catalytic domain of recombinant human TACE (rhTACEc) (Homo sapiens, UniProt P78536, N452Q/S266A).
T1 construct: rhTACEc, Residue 215 to 477 with two mutation (S266A and N4520) and a 6×His tail; 6xHis (C); made in house; host or cells: baculovirus/Hi5 insect cells
T1 sequence (P78536 215-477 S266A/N452Q limits assumed): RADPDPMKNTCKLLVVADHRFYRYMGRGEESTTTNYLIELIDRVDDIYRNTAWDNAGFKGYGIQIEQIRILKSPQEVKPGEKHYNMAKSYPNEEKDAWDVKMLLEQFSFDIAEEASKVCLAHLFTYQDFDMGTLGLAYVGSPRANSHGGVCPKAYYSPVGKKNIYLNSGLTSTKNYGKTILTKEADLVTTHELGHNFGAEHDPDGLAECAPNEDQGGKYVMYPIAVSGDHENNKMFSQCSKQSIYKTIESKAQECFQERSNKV
The assay is described as follows: TACE kinetic assay, cleavage of internally quenched fluorescent peptide substrate SPDL-3. Type of assay: biochemical. As to conditions: TACE; class letters A-D; read-out: Ki Rating.
For the compound `COc1ccc2c(c1)C(=O)N(C[C@@]1(C#Cc3ccc4c(c3)NC(=O)C4=O)NC(=O)NC1=O)C2` [Compound 1220D], the inhibitory constant (Ki) is under 5 nM.

For `COc1ccc2c(c1)C(=O)N(C[C@@]1(C#Cc3ncnc4[nH]ccc34)NC(=O)NC1=O)C2` [Compound 1220E], the Ki was under 5 nM. With `COc1ccc2c(c1)C(=O)N(C[C@@]1(C#Cc3cncc(-c4nnn(C(C)C)n4)c3)NC(=O)NC1=O)C2` [Compound 1220], the Ki was under 5 nM. As for `COc1ccc2c(c1)C(=O)N(C[C@@]1(C#Cc3cccnc3C3CC3)NC(=O)NC1=O)C2` [Compound 1221], the Ki was under 5 nM. Consider `COc1ccc2c(c1)C(=O)N(C[C@@]1(C#Cc3cnccc3C3CC3)NC(=O)NC1=O)C2` [Compound 1222], for which the Ki was under 5 nM. On the same count and under the same terms, with `COc1ccc2c(c1)C(=O)N(C[C@@]1(C#Cc3ccc(C(N)=O)c([N+](=O)[O-])c3)NC(=O)NC1=O)C2` [Compound 1250] the figure was under 5 nM; with `COc1ccc2c(c1)C(=O)N(C[C@@]1(C#Cc3ccc4c(c3)C(=O)NC4)NC(=O)NC1=O)C2` [Compound 1251], under 5 nM. On to `COc1ccc2c(c1)C(=O)N(C[C@@]1(C#Cc3cccc4c3CNC4=O)NC(=O)NC1=O)C2` [Compound 1252], for which the Ki was under 5 nM. On to `COc1ccc2c(c1)C(=O)N(C[C@@]1(C#Cc3ccc4c(c3)CNC4=O)NC(=O)NC1=O)C2` [Compound 1253], for which the Ki is under 5 nM. The same measure, in the same setting: with `COc1ccc2c(c1)C(=O)N(C[C@@]1(C#Cc3ccc(-c4cncnc4)nc3)NC(=O)NC1=O)C2` [Compound 1254] the figure was under 5 nM; with `COc1ccc2c(c1)C(=O)N(C[C@@]1(C#Cc3cnc(-c4cccnc4)nc3)NC(=O)NC1=O)C2` [Compound 1256C], under 5 nM; with `COc1ccc2c(c1)C(=O)N(C[C@@]1(C#Cc3ccc(-c4nnc(C)o4)nc3)NC(=O)NC1=O)C2` [Compound 1500], under 5 nM. Same read-out and setting: with `COc1ccc2c(c1)C(=O)N(C[C@@]1(C#Cc3ccc(-c4nnc(N)o4)nc3)NC(=O)NC1=O)C2` [Compound 1501] the figure was under 5 nM; with `CCNc1nnc(-c2ccc(C#C[C@]3(CN4Cc5ccc(OC)cc5C4=O)NC(=O)NC3=O)cn2)o1` [Compound 1502], under 5 nM. With `COc1ccc2c(c1)C(=O)N(C[C@@]1(C#Cc3cnc4ccccn34)NC(=O)NC1=O)C2` [Compound 1503], the Ki was under 5 nM.

With `COc1ccc2c(c1)C(=O)N(C[C@@]1(C#Cc3cnc4ccc(Br)cn34)NC(=O)NC1=O)C2` [Compound 1504], the Ki is under 5 nM. Turning to `COc1ccc2c(c1)C(=O)N(C[C@@]1(C#Cc3ccc4nc(C)cn4c3)NC(=O)NC1=O)C2` [Compound 1505], the Ki is under 5 nM. `COc1ccc2c(c1)C(=O)N(C[C@@]1(C#Cc3n[nH]c4ccccc34)NC(=O)NC1=O)C2` [Compound 1506]: the Ki is under 5 nM. Turning to `COc1ccc2c(c1)C(=O)N(C[C@@]1(C#Cc3cc(F)ccn3)NC(=O)NC1=O)C2` [Compound 1507], the Ki is under 5 nM. Turning to `COc1ccc2c(c1)C(=O)N(C[C@@]1(C#Cc3c4ccccc4nn3C)NC(=O)NC1=O)C2` [Compound 1508], the Ki was under 5 nM. Same read-out and setting: with `COc1ccc2c(c1)C(=O)N(C[C@@]1(C#Cc3cc(C)ccc3O)NC(=O)NC1=O)C2` [Compound 1509] the figure was under 5 nM; with `COc1ccc2c(c1)C(=O)N(C[C@@]1(C#Cc3cnn4ccccc34)NC(=O)NC1=O)C2` [Compound 1510], under 5 nM; with `COC(=O)c1cc(C#C[C@]2(CN3Cc4ccc(OC)cc4C3=O)NC(=O)NC2=O)ccn1` [Compound 1511], under 5 nM. Take `COc1ccc2c(c1)C(=O)N(C[C@@]1(C#Cc3ccnc(C(N)=O)c3)NC(=O)NC1=O)C2` [Compound 1512]: the Ki was under 5 nM. Consider `COc1ccc2c(c1)C(=O)N(C[C@@]1(C#Cc3ccc(C(N)=O)nc3)NC(=O)NC1=O)C2` [Compound 1513], for which the Ki was under 5 nM. Same read-out and setting: with `COC(=O)c1ccc(C#C[C@]2(CN3Cc4ccc(OC)cc4C3=O)NC(=O)NC2=O)cn1` [Compound 1514] the figure was under 5 nM. Same read-out and setting: the same measure for `COc1ccc2c(c1)C(=O)N(C[C@@]1(C#Cc3cnccc3C(N)=O)NC(=O)NC1=O)C2` [Compound 1515]: under 5 nM. `COC(=O)c1ccncc1C#C[C@]1(CN2Cc3ccc(OC)cc3C2=O)NC(=O)NC1=O` [Compound 1516]: the Ki was under 5 nM.

As to `CNC(=O)c1ccc(C#C[C@]2(CN3Cc4ccc(OC)cc4C3=O)NC(=O)NC2=O)cn1` [Compound 1517], the Ki was under 5 nM. On the same count and under the same terms, with `COc1ccc2c(c1)C(=O)N(C[C@@]1(C#Cc3ccc(C(=O)NC4CC4)nc3)NC(=O)NC1=O)C2` [Compound 1518] the figure was under 5 nM; with `COc1ccc2c(c1)C(=O)N(C[C@@]1(C#Cc3cc(C)c(=O)n(C)c3)NC(=O)NC1=O)C2` [Compound 1519], under 5 nM; with `COc1ccc2c(c1)C(=O)N(C[C@@]1(C#Cc3ccc4nnn(C)c4c3)NC(=O)NC1=O)C2` [Compound 1520], under 5 nM. In the case of `COc1ccc2c(c1)C(=O)N(C[C@@]1(C#Cc3ccc4nc(C(F)(F)F)cn4c3)NC(=O)NC1=O)C2` [Compound 1521], the Ki was under 5 nM. Consider `COc1ccc2c(c1)C(=O)N(C[C@@]1(C#Cc3ccc4[nH]nnc4c3)NC(=O)NC1=O)C2` [Compound 1522], for which the Ki is under 5 nM. Same read-out and setting: the same measure for `COc1ccc2c(c1)C(=O)N(C[C@@]1(C#Cc3ccc4[nH]ncc4c3)NC(=O)NC1=O)C2` [Compound 1523]: under 5 nM; for `COc1ccc2c(c1)C(=O)N(C[C@@]1(C#Cc3c[nH]c(=O)c(C)c3)NC(=O)NC1=O)C2` [Compound 1524]: under 5 nM; for `CC#CCOc1ccc2c(c1)C(=O)N(C[C@@]1(C#Cc3ccc4cn(C)nc4c3)NC(=O)NC1=O)C2` [Compound 1533]: under 5 nM. For the compound `Cc1cc(COc2ccc3c(c2)C(=O)N(C[C@@]2(C#Cc4cccnc4)NC(=O)NC2=O)C3)c2ccccc2n1` [Compound 1534], the Ki was under 5 nM.

As to `O=C1NC(=O)C(C#Cc2cnc3ccc(Br)cn23)(CN2Cc3ccc(OC(F)F)cc3C2=O)N1` (stereo not shown) [Compound 1535], the Ki lay within 5 to 25 nM. Consider `COc1ccc2c(c1)C(=O)N(C[C@@]1(C#Cc3ccc(C(=O)NS(C)(=O)=O)cc3)NC(=O)NC1=O)C2` [Compound 1550], for which the Ki is 5 to 25 nM.

For the compound `CCS(=O)(=O)NC(=O)c1ccc(C#C[C@]2(CN3Cc4ccc(OC)cc4C3=O)NC(=O)NC2=O)cc1` [Compound 1551], the Ki was under 5 nM. Turning to `COc1ccc2c(c1)C(=O)N(C[C@@]1(C#Cc3cncc(C(C)=NO)c3)NC(=O)NC1=O)C2` [Compound 1552], the Ki was under 5 nM. For the compound `COc1ccc2c(c1)C(=O)N(C[C@@]1(C#Cc3ccc(CC(C)=NO)cc3)NC(=O)NC1=O)C2` [Compound 1553], the Ki was under 5 nM. As to `COc1ccc2c(c1)C(=O)N(C[C@@]1(C#Cc3ccc4c(C=NO)c[nH]c4c3)NC(=O)NC1=O)C2` [Compound 1554], the Ki was under 5 nM. Turning to `COc1ccc2c(c1)C(=O)N(C[C@@]1(C#Cc3ccc(C4(C)NC(=O)N(C)C4=O)cc3)NC(=O)NC1=O)C2` (stereo partly shown) [Compound 1555], the Ki was under 5 nM. The same measure, in the same setting: the same measure for `COc1ccc2c(c1)C(=O)N(C[C@@]1(C#Cc3cccc(C4(C)NC(=O)NC4=O)c3)NC(=O)NC1=O)C2` (stereo partly shown) [Compound 1556]: under 5 nM; for `COc1ccc2c(c1)C(=O)N(C[C@@]1(C#Cc3ccc4c(c3)C(=O)C(=O)N4)NC(=O)NC1=O)C2` [Compound 1557]: under 5 nM. With `COc1ccc2c(c1)C(=O)N(CC1(C#Cc3cccnc3)NC(=O)NC1=O)CC2` (stereo not shown) [Compound 1558], the Ki was in the range of 5 to 25 nM.

For `COc1ccc2c(c1)C(=O)N(C[C@@]1(C#Cc3ccc(C)nc3N)NC(=O)NC1=O)C2` [Compound 1559], the Ki was under 5 nM. Regarding `COc1ccc2c(c1)C(=O)N(C[C@@]1(C#Cc3ccc4oc(=O)[nH]c4c3)NC(=O)NC1=O)C2` [Compound 1560], the Ki is under 5 nM.

On to `COc1ccc2c(c1)C(=O)N(C[C@@]1(C#Cc3cncnc3N)NC(=O)NC1=O)C2` [Compound 1561], for which the Ki was under 5 nM. As to `COc1ccc2c(c1)C(=O)N(C[C@@]1(C#Cc3ccc(C4(CN)NC(=O)NC4=O)cc3)NC(=O)NC1=O)C2` (stereo partly shown) [Compound 1562], the Ki was under 5 nM. `COc1ccc2c(c1)C(=O)N(C[C@@]1(C#Cc3ccc(F)nc3)NC(=O)NC1=O)C2` [Compound 1563]: the Ki is under 5 nM.

Regarding `COc1ccc2c(c1Br)C(=O)N(CC1(C#Cc3cccnc3)NC(=O)NC1=O)C2` (stereo not shown) [Compound 1564], the Ki was in the range of 5 to 25 nM. Take `CON=C(C)c1ccc(C#C[C@]2(CN3Cc4ccc(OC)cc4C3=O)NC(=O)NC2=O)cc1` [Compound 1565]: the Ki is under 5 nM. Consider `COc1ccc2c(c1)C(=O)N(C[C@@]1(C#Cc3ccc4[nH]c(=O)[nH]c(=O)c4c3)NC(=O)NC1=O)C2` [Compound 1566], for which the Ki is under 5 nM. In the case of `COc1ccc2c(c1)C(=O)N(C[C@@]1(C#Cc3cnc(O)nc3N)NC(=O)NC1=O)C2` [Compound 1567], the Ki is under 5 nM. As to `COc1ccc2c(c1)C(=O)N(C[C@@]1(C#Cc3cnc4c(c3)CCC(=O)N4)NC(=O)NC1=O)C2` [Compound 1568], the Ki was under 5 nM. For the compound `COc1ccc2c(c1)C(=O)N(C[C@@]1(C#Cc3cc4ccccc4[nH]c3=O)NC(=O)NC1=O)C2` [Compound 1569], the Ki was under 5 nM. With `COc1ccc2c(c1)C(=O)N(C[C@@]1(C#Cc3ccc(C(=O)NS(=O)(=O)C4CC4)cc3)NC(=O)NC1=O)C2` [Compound 1570], the Ki was under 5 nM. Same read-out and setting: the same measure for `COc1ccc2c(c1)C(=O)N(C[C@@]1(C#Cc3cnc(Cl)c(O)c3)NC(=O)NC1=O)C2` [Compound 1571]: under 5 nM; for `COc1ccc2c(c1)C(=O)N(C[C@@]1(C#Cc3cnc(N4CCSCC4)nc3N)NC(=O)NC1=O)C2` [Compound 1572]: under 5 nM.

The same assay, now with this note: rhTACEc 70 pM, 30 μM SPDL-3, 90 min pre-incubation at 25° C.; read-out: Ki (nM), TACE inhibitory activity.
Turning to `COc1ccc2c(c1)C(=O)N(C[C@@]1(C#Cc3ccc(C4(C)NC(=O)NC4=O)cc3)NC(=O)NC1=O)C2` (stereo partly shown) [Compound 1256], the Ki is 0.03 nM. For `CCNc1nnc(-c2ccc(C#C[C@]3(CN4Cc5ccc(OC)cc5C4=O)NC(=O)NC3=O)cn2)o1` [Compound 1502], the inhibitory constant (Ki) came to 0.094 nM.
